What was measured:
PC12 cells [1] = experiment: Etoposide-induced apoptosis in PC12 cells, cell viability; type: cell-based; settings: for viability at 1 µM / viability at 3 µM / viability at 10 µM / viability at 30 µM: Rattus norvegicus, PC-12; for viability at 1 µM: read-out: % Viability 1 μM; for viability at 3 µM: read-out: % Viability 3 μM; for viability at 10 µM: read-out: % Viability 10 μM; for viability at 30 µM: read-out: % Viability 30 μM; for protective activity in WT PC12 etoposide assay: WT PC12 cells
PC12 cells [2] = experiment: Serum starvation-induced apoptosis in PC12 cells, cell viability; type: cell-based; settings: serum starvation-induced apoptosis, PC12 cells; for viability at 1 µM / viability at 3 µM / viability at 10 µM / viability at 30 µM: Rattus norvegicus, PC-12; for viability at 1 µM: read-out: % Viability 1 μM; for viability at 3 µM: read-out: % Viability 3 μM; for viability at 10 µM: read-out: % Viability 10 μM; for viability at 30 µM: read-out: % Viability 30 μM
[3] = 1 μM compound, etoposide-induced apoptosis, PC12 cells
[4] = 3 μM compound, etoposide-induced apoptosis, PC12 cells
[5] = 10 μM compound, etoposide-induced apoptosis, PC12 cells
[6] = 30 μM compound, etoposide-induced apoptosis, PC12 cells
[7] = 1 μM compound, vehicle 55.04 ± 8.99

Compound	% Viability 1 μM (PC12 cells [1]; [3])	% Viability 3 μM (PC12 cells [1]; [4])	% Viability 10 μM (PC12 cells [1]; [5])	% Viability 30 μM (PC12 cells [1]; [6])	% Viability 1 μM (PC12 cells [2]; [7])	% Viability 3 μM (PC12 cells [2]; 3 μM compound)	% Viability 10 μM (PC12 cells [2]; 10 μM compound)	% Viability 30 μM (PC12 cells [2]; 30 μM compound)	viability at 1 µM (PC12 cells [1]; [3])	viability at 3 µM (PC12 cells [1]; [4])	viability at 10 µM (PC12 cells [1]; [5])	viability at 30 µM (PC12 cells [1]; [6])	viability at 1 µM (PC12 cells [2]; [7])	viability at 3 µM (PC12 cells [2]; 3 μM compound)	viability at 10 µM (PC12 cells [2]; 10 μM compound)	viability at 30 µM (PC12 cells [2]; 30 μM compound)	protective activity in WT PC12 etoposide assay (PC12 cells [1])
2-chloroethyl 6-(4-fluorobenzylamino)-2-aminopyridin-3-ylcarbamate [NK-23-1]	54.01 ± 13.43%	53.92 ± 6.37%	41.79 ± 4.38%	40.77 ± 6.98%	84.07 ± 11.85%	83.62 ± 5.88%	100.15 ± 15.84%	106.47 ± 15.46%	–	–	–	–	–	–	–	–	–
C=CCOC(=O)Nc1ccc(NCc2ccc(Cl)cc2)nc1N [JG-4-5]	–	–	–	–	–	–	–	–	87.2 ± 19.8%	79.7 ± 7.48%	84.3 ± 13.2%	80.4 ± 24.1%	72.3 ± 1.45%	95.2 ± 2.41%	70.2 ± 9.45%	71.1 ± 8.61%	–
CCOC(=O)Nc1ccc(NCc2ccc(C)cc2)cc1N [JG-32-3, Ethyl (2-amino-4-((4-methylbenzyl)amino)phenyl)carbamate]	–	–	–	–	–	–	–	–	110 ± 39.4%	136 ± 30.1%	123 ± 23.2%	98 ± 22.9%	62.6 ± 16.7%	79.54 ± 0.6%	77.9 ± 1.34%	71.33 ± 0.03%	significant increase in potency
COC(=O)Nc1ccc(NCc2ccc(F)cc2)nc1N [NK-3-1, Methyl 6-(4-fluorobenzylamino)-2-aminopyridin-3-ylcarbamate]	–	–	–	–	–	–	–	–	74.5 ± 33.1%	96.6 ± 14.6%	82.2 ± 23.4%	63.3 ± 27.4%	76.9 ± 10.2%	79.1 ± 8.28%	72.2 ± 9.15%	72.3 ± 16.4%	–
CC(C)COC(=O)Nc1ccc(NCc2ccc(F)cc2)nc1N [NK-8-1, Isobutyl 6-(4-fluorobenzylamino)-2-aminopyridin-3-ylcarbamate]	–	–	–	–	–	–	–	–	57.9 ± 22.4%	62.9 ± 2.98%	46.5 ± 3.36%	56.1 ± 0.67%	67.9 ± 12.6%	77.4 ± 11.7%	89.7 ± 6.68%	88.3 ± 10.8%	–
CCOC(=O)Nc1ccc(NCc2cccc(C(F)(F)F)c2)nc1N [NK-16-3, Ethyl 6-(3-(trifluoromethyl)benzylamino)-2-aminopyridin-3-ylcarbamate]	–	–	–	–	–	–	–	–	59.9 ± 13.8%	68.2 ± 7.5%	60.4 ± 19.4%	46.4 ± 12.8%	83.6 ± 14.3%	80.7 ± 8.11%	86.9 ± 9.07%	84.2 ± 16.1%	–
COC(=O)Nc1ccc(NCc2cccc(C(F)(F)F)c2)nc1N [NK-16-4, Methyl 6-(3-(trifluoromethyl)benzylamino)-2-aminopyridin-3-ylcarbamate]	–	–	–	–	–	–	–	–	46.7 ± 3.26%	41.3 ± 10.1%	28.6 ± 2.14%	37 ± 3.91%	92.1 ± 10.2%	88 ± 8.56%	97.8 ± 9.35%	97.6 ± 1800%	–
C=CCOC(=O)Nc1ccc(NCc2cccc(C(F)(F)F)c2)nc1N [NK-16-6, Allyl 6-(3-(trifluoromethyl)benzylamino)-2-aminopyridin-3-ylcarbamate]	–	–	–	–	–	–	–	–	78 ± 37.1%	107 ± 2.3%	101 ± 9.58%	87.6 ± 21.9%	77.1 ± 12.1%	87.8 ± 10%	92 ± 13%	74.5 ± 11.9%	provides greater activity
CCOC(=O)Nc1ccc(NCc2cc(C(F)(F)F)cc(C(F)(F)F)c2)nc1N [NK-17-3, Ethyl (2-amino-6-((3,5-bis(trifluoromethyl)benzyl)amino)pyridin-3-yl)carbamate]	–	–	–	–	–	–	–	–	63.7 ± 22.7%	75.7 ± 6.39%	68.1 ± 9.52%	56 ± 6.26%	81.8 ± 8.69%	72.8 ± 12.4%	78.5 ± 6.27%	57.9 ± 9.54%	–
CC(Cl)OC(=O)Nc1ccc(NCc2ccc(F)cc2)nc1N (stereo not shown) [NK-21-1, 1-chloroethyl 6-(4-fluorobenzylamino)-2-aminopyridin-3-ylcarbamate]	–	–	–	–	–	–	–	–	69.5 ± 13.2%	88.9 ± 21.5%	84.3 ± 32.2%	84.8 ± 33.7%	74.2 ± 11.5%	75.6 ± 13.4%	91.7 ± 6.31%	84 ± 13.8%	–

Reference: patent publication US11369593B2 (Texas Tech University System, priority 2017, dated 2022)
